A word on the MIC: it is the smallest concentration in the dilution series that meets the test's criterion for growth inhibition.

For data set [1], the system named is Escherichia coli 25922. The data set can be described thus: Mouse peritonitis-sepsis model. Type of data set: in vivo. On the procedure: A mouse peritonitis-sepsis model was created as described elsewhere. Infection was obtained after intraperitoneal injection of bacteria from a logarithmic-phase culture. Infected mice were treated subcutaneously. The doses were selected to allow comparison with the reference compound and to remain below the maximum tolerated dose after double-dose administration. […] Briefly, mouse peritonitis sepsis model for in vivo studies were performed using male ICR mice ([…]) obtained from Envigo Laboratories (Rehovot, Israel). […] Infection was obtained by intraperitoneal injection of a logarithmic phase culture of E. coli 25922 (1.3±0.2×10^6 CFU permouse in 0.3 ml PBS). […] Infection control mice were injected with the PBS vehicle. Mouse survival was monitored for up to 7 days after treatment. Statistical analyses were performed by paired Student's t test, at α=0.05.

For data set [2], the system named is Escherichia coli mutant ML-35p. Put plainly: Outer and cytoplasmic membrane permeabilization (nitrocefin / ONPG). Type of data set: cell-based. The following applies: E. coli ML-35p, buffer, 16 minutes after addition. On the procedure:
Membrane permeabilization was assessed using E. coli ML-35p as described elsewhere, to monitor the ability of the compounds to perturb the outer and/or cytoplasmic membranes. Reported data were obtained from ≥2 independent experiments performed in duplicate.
Additional support for this view was obtained by comparing the compounds' susceptibility to damage gram-negative bacteria membranes, using the E. coli mutant ML-35p. Widely described in the literature, the mutant was considered herein as representative of all gram-negative bacteria, rather than a specific species. This mutant is constitutive for cytoplasmic β-galactosidase, lacks lactose permease, and expresses a plasmid-encoded periplasmic β-lactamase. Two chromogenic reporter molecules (nitrocefin and 2-nitrophenyl β-d-galactopyranoside, respectively, absorbing at 486 and 420 nm) were used to monitor permeabilization of the outer membrane and/or cytoplasmic membrane in a single assay.

Data set [3] is described as follows: Critical aggregation concentration by light scattering in PBS. The following applies: light scattering in phosphate-buffered saline. Type of data set: physicochemical. On the procedure: Organization of the compounds in aqueous solution was assessed by light-scattering measurements in phosphate buffered saline (PBS; 10 mM Na2HPO4, 150 mM NaCl, pH=7.0). Hemolytic assays were performed as described elsewhere, using fresh mouse red blood cells.
(§1) The mean value (±SD) is shown for Compound C; Minimum inhibitory concentration (MIC) of compounds required to inhibit bacterial proliferation after overnight incubation.

Data set [4] relates to Klebsiella pneumoniae 1287. The data set can be described thus: Mouse peritonitis-sepsis model. The format is in vivo. The following applies: for survival frequency: neutropenic ICR mice infected i.p.
Another data set deals with E. coli 25922. Put plainly: Outer-membrane damage assay (NPN uptake). The format is cell-based, Escherichia coli. Particulars: sub-MIC concentrations. On the procedure:
1-N-phenylnaphthylamine (NPN) uptake (manifested as fluorescence) reflects outer-membrane damage because normally bacteria are able to exclude hydrophobic substances. As described elsewhere, E. coli 25922 was grown to the mid-logarithmic phase of growth (OD=0.4-0.6 at 600 nm), centrifuged, and resuspended in 5 mM HEPES buffer containing 5 mM glucose to OD 0.5. Next, […] of NPN solution (0.2 mM) was added to every milliliter bacteria suspension. Using black 96-well plates, […] of bacteria suspension was mixed with […] of test compound at the desired concentration and the fluorescence immediately monitored (excitation 360 nm, emission 460 nm) for up to 10 min. Data were obtained from at least 2 independent experiments performed in triplicate.
(FU denotes fluorescence units; triangles denote Compound B, circles denote PMB, squares denote untreated control; error bars=SD).

Data set [5] concerns Klebsiella pneumoniae C2 (carbapenemase 2-producing strain). Put plainly: Minimal inhibitory concentration. Type of data set: cell-based. Particulars: Kp C2, overnight incubation, read-out: MIC. On the procedure: (§2) Minimal inhibitory concentrations (MICs) were determined as previously described. […] MICs were determined by microdilution susceptibility testing in 96-well plates (by Nunc) using inocula of 10^5 bacteria per ml. Cell populations were evaluated by optical density measurements at 620 nm and were calibrated against a set of standards. Hundred (100) μl of a bacterial suspension were added to 100 μl of culture medium (control) or to 100 μl of culture medium containing various tested compound concentrations in 2-fold serial dilutions. Inhibition of proliferation was determined by optical density measurements at 620 nm after an incubation period of 24 hours at 37° C. Data were obtained from ≥2 independent experiments performed in duplicate.
as §1

In data set [6] the test system is Escherichia coli 25922. Put plainly: Minimal inhibitory concentration. Type of data set: cell-based. Particulars: Ec 25922, overnight incubation, read-out: MIC. The procedure: as §2, §1
The subject of data set [7] is Salmonella enterica serovar Choleraesuis 7308. The data set can be described thus: Minimal inhibitory concentration. The format is cell-based. The following applies: CHOLERAESUIS / SC7308, SC 7308, overnight incubation, read-out: MIC. The procedure:
as §2, §1

Data set [8] relates to Klebsiella pneumoniae 1287. The data set can be described thus: Minimal inhibitory concentration. The format is cell-based. The following applies: Kp 1287, overnight incubation, read-out: MIC. On the procedure:
as §2, §1

For data set [9], the system named is Salmonella enterica serovar Typhimurium 14028. Put plainly: Minimal inhibitory concentration. The format is cell-based. The following applies: ST 14028, overnight incubation, read-out: MIC. The procedure:
as §2, §1

Data set [10] has as its system Pseudomonas aeruginosa 11662. Put plainly: Minimal inhibitory concentration. The format is cell-based. The following applies: Pa 11662, overnight incubation, read-out: MIC. The procedure:
as §2, §1

The subject of data set [11] is Pseudomonas aeruginosa 11816. Put plainly: Minimal inhibitory concentration. The format is cell-based. Particulars: Pa 11816, overnight incubation, read-out: MIC. The procedure: as §2, §1
A further data set relates to Escherichia coli ML35p. The data set can be described thus: Minimal inhibitory concentration. The format is cell-based. Particulars: Ec ML35p, overnight incubation. On the procedure:
as §2, §1

Data set [12] can be described thus: Maximum tolerated dose, single-dose subcutaneous administration. The format is in vivo. Particulars: subcutaneous 20 mg/kg, mice. On the procedure:
Mortality was monitored for 7 days thereafter. Pharmacokinetic studies were performed as described elsewhere.

Where [13] appears, read: bacteria exposed in vitro to 5 μM Compound B for 15 minutes, neutropenic mice, 3 days post-infection.

In brackets after ≈: the same amount, converted by molar mass. Entries after “also recorded” stand apart in the source; their conditions may differ. Non-standard residues stand in square brackets, D forms with d. Residues, ends and D or L forms follow the SMILES beside them. *: point of attachment. 12Ado = NCCCCCCCCCCCC(=O)O; Decanoyl = CCCCCCCCCC(=O)*; Orn = NCCC[CH](N)C(=O)O

With `CCCCCCCCCC(=O)NC(CCCN)C(=O)NC(CCCN)C(=O)NCCCCCCCCCCCC(=O)NC(CCCN)C(N)=O` (centres unmarked) [Compound B] (Decanoyl-[Orn][Orn][12Ado][Orn]-NH2; configuration not given here), the “animal survival after infection with pretreated bacteria” value with Escherichia coli 25922 [1] (setting [13]) was 40%; in [4] (setting [13]) it was 70%. This compound displayed a survival rate in the data set on Escherichia coli 25922 [1] (neutropenic ICR mice infected i.p., lower dose administrated twice (1 and 6 hours after inoculation)) of 70%. In addition, the “mice protected from fatal sepsis (survival)” value in the data set on Escherichia coli 25922 [1] (neutropenic ICR mice infected i.p., s.c. single dose 1 hour after inoculation) turned out to be 40%. Moreover, the “mice protected from developing sepsis” value in the data set with Escherichia coli 25922 [1] (neutropenic ICR mice, Compound B […] s.c. alone, 1 hour after infection) turned out to be 36%. Further, the cytoplasmic membrane permeabilization result in data set [2] is listed as “similarly unable to permeabilize the cytoplasmic membrane at least up to approximately 10 μM; also recorded: some CM permeabilization occurred only at 10 mM”. The outer membrane permeabilization entry in [2] was “similarly potent in inducing outer membrane permeabilization; also recorded: as efficient as dermaseptin in altering outer membrane permeability”. The “CAC, critical aggregation concentration” value in [3] is more than 100 µM. Further, the survival frequency in data set [4] (s.c. double doses) is listed as 90%; in data set [4] (s.c. single dose) it was 60%. Besides, the “OM permeabilization (NPN fluorescence)” value in the data set with E. coli 25922 is listed as “rapidly caused a dose-dependent increase in fluorescence”. Moreover, the MIC in data set [5] was more than 50 µM; in the data set on Escherichia coli 25922 [6] it was more than 50 µM; in data set [7], more than 50 µM; in [8], more than 50 µM; in data set [9], more than 50 µM; in [10], 50 µM (≈ 35.6 µg/mL). Moreover, the MIC in data set [11] was 50 µM (≈ 35.6 µg/mL); against Escherichia coli ML35p, more than 50 µM. The “adverse effects at highest tested dose” value in data set [12] is given as “did not result in any visible adverse effect”.
